{"source": "patent US20220242963A1", "about": "“B-CELL ACTIVATING CD73 ANTIBODIES” (CORVUS PHARMACEUTICALS, INC., priority 2018, published 2022)", "test_system": "B cells (CD19+CD3−)", "test": "B cell activation in healthy donor PBMC, flow cytometry of surface markers / phospho ERK", "assay_type": "cell-based, human", "settings": "human B lymphocytes", "source_text": "With reference to FIGS. 2A-2E, each group of four bars from left to right represent data for: untreated donors, donors treated with human IgG1 isotype control, donors treated with BCR stimulation, and donors treated with CPI-006. The experiments for FIGS. 2A-2E are based on healthy donor PBMC treated overnight with flow cytometry analysis of surface markers on B cells (CD19^POS CD3^NEG). These lymphocyte markers are consistent with activation of B cells as well as other antigen presenting cell populations. […] The bar graph legend from top to bottom is representative of the data bars from left to right. […] For FIG. 2H the bar graph legend from top to bottom is representative of the data bars from left to right. For FIG. 2I the legend from top to bottom is representative of the data from top to bottom. […] For each group of four bars, the legend from top to bottom are representative of the bars from left to right.\nPBMC were isolated from healthy donors and incubated with bead-bound anti-IgM, CPI-006 (10 μg/mL), or human IgG1 isotype control (10 μg/mL) overnight. Flow cytometry analysis was performed with gating on B cells (CD19+CD3−) and mean fluorescence intensity (MFI) was reported for staining with antibodies to the cell surface markers CD69, CD83, and CD25, as shown in FIGS. 2A-2C. PBMC were isolated from healthy donors and incubated with CPI-006, CPI-016, human IgG1 isotype control, and anti-human CD73 antibody, clone AD2 (available from Bio-Rad Antibodies) over a range of concentrations from about 0.1 μg/mL to more than 10 μg/mL. Flow cytometry analysis was performed with gating on B cells (CD19+CD3−) and mean fluorescence intensity (MFI) is reported for antibody staining of CD69, as shown in FIG. 2F. PBMC were isolated from healthy donors and incubated overnight with bead-bound anti-IgM or CPI-006 (1 μg/mL)+/−BTK inhibitor, ibrutinib (100 nM). Flow cytometry analysis was performed with gating on B cells (CD19+CD3−) and mean fluorescence intensity (MFI) is reported for antibody staining of CD69 and CD83, as shown in FIG. 2G. PBMC were isolated from healthy donors and incubated overnight with APCP (1 μM) or CPI-006 (1 μg/mL)+/−NECA (5′-N-ethylcarboxamidoadenosine). Flow cytometry analysis was performed with gating on B cells (CD19+CD3−) and mean fluorescence intensity (MFI) is reported for antibody staining of CD69, as shown in FIGS. 2H-2I. PBMC were isolated from healthy donors and incubated with the indicated treatments for 15 minutes. Flow cytometry analysis was performed with gating on the indicated cell populations and staining of phospho ERK was evaluated, as shown in FIG. 2J."}
{"substance": "MEDI9447: anti-CD73 antibody described by Hay CM et al., Oncoimmunology 2016 [reference compound]", "values": [{"measurement": "direct B cell activation", "result": "do not show this effect"}]}
